# Measured values published in ChEMBL document CHEMBL1201862, “PubChem BioAssay data set” (2004).
#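 Step 1: Grow cells in 96-well plates. Step 2: Expose to compound for 48 hours at 5 concentrations. Step 3: Interpolate endpoints linearly; if unreached, use highest concentration. GI50 is the concentration that inhibits growth by half.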 Calls of active or inactive are those of the source. Cut-off read from the data, not from the text of the source: active = GI50 up to about 1.1 µM and inactive = higher.
# Legend:
# Assay in all cases: NCI tumour cell line growth inhibition, 48 h
# UACC-257 = tested on: UACC-257
# UO-31 = tested on: UO-31
# CCRF-CEM = tested on: CCRF-CEM
# HCT-15 = tested on: HCT-15
# UACC-62 = tested on: UACC-62
# K562 = tested on: K562
# SF-268 = tested on: SF-268
# COLO 205 = tested on: COLO 205
# 786-0 = tested on: 786-0
# SF-539 = tested on: SF-539
# ACHN = tested on: ACHN
# KM12 = tested on: KM12
# T47D = tested on: T47D
# OVCAR-3 = tested on: OVCAR-3
# MDA-N = tested on: MDA-N
# MDA-MB-231 = tested on: MDA-MB-231
# SNB-75 = tested on: SNB-75
# HOP-92 = tested on: HOP-92
# OVCAR-8 = tested on: OVCAR-8
# LOX IMVI = tested on: LOX IMVI
# Malme-3M = tested on: Malme-3M
# BT-549 = tested on: BT-549
# NCI-H226 = tested on: NCI-H226
# SK-MEL-28 = tested on: SK-MEL-28
# NCI-H23 = tested on: NCI-H23
# Hs-578T = tested on: Hs-578T
# NCI-H460 = tested on: NCI-H460
# HCT-116 = tested on: HCT-116
# HOP-62 = tested on: HOP-62
# SW-620 = tested on: SW-620
# TK-10 = tested on: TK-10
# M14 = tested on: M14
# IGROV-1 = tested on: IGROV-1
# RXF 393 = tested on: RXF 393
# DU-145 = tested on: DU-145
# NCI-H522 = tested on: NCI-H522
# NCI/ADR-RES = tested on: NCI/ADR-RES
# MCF7 = tested on: MCF7
# SN12C = tested on: SN12C
# SR = tested on: SR
# OVCAR-4 = tested on: OVCAR-4
# SK-OV-3 = tested on: SK-OV-3
# HT-29 = tested on: HT-29
# A498 = tested on: A498
# U-251 = tested on: U-251
# EKVX = tested on: EKVX
# RPMI-8226 = tested on: RPMI-8226
# MOLT-4 = tested on: MOLT-4
# SNB-19 = tested on: SNB-19
# SK-MEL-2 = tested on: SK-MEL-2
# SK-MEL-5 = tested on: SK-MEL-5
# HCC 2998 = tested on: HCC 2998
# A549 = tested on: A549
# OVCAR-5 = tested on: OVCAR-5
# PC-3 = tested on: PC-3
# MDA-MB-435 = tested on: MDA-MB-435
# SF-295 = tested on: SF-295
# HL-60 = tested on: HL-60
# CAKI-1 = tested on: CAKI-1
smiles,measurement,setting,value
COc1cccc(Nc2nc(NNC(=O)Cc3ccccc3)nc(NNC(=O)c3ccncc3)n2)c1,GI50,UACC-257,> 10 µM (inactive)
same,GI50,UO-31,6.32 µM (inactive)
same,GI50,CCRF-CEM,> 10 µM (inactive)
same,GI50,HCT-15,7.93 µM
same,GI50,UACC-62,4.71 µM (inactive)
same,GI50,K562,> 10 µM (inactive)
same,GI50,SF-268,> 10 µM (inactive)
same,GI50,COLO 205,> 10 µM (inactive)
same,GI50,786-0,> 10 µM (inactive)
same,GI50,SF-539,> 10 µM (inactive)
same,GI50,ACHN,> 100 µM (inactive)
same,GI50,KM12,71.3 µM (inactive)
same,GI50,T47D,> 10 µM (inactive)
same,GI50,OVCAR-3,> 100 µM (inactive)
same,GI50,MDA-N,> 10 µM (inactive)
same,GI50,MDA-MB-231,8.55 µM (inactive)
same,GI50,SNB-75,53.5 µM (inactive)
same,GI50,HOP-92,> 10 µM (inactive)
same,GI50,OVCAR-8,> 10 µM (inactive)
same,GI50,LOX IMVI,13.4 µM (inactive)
same,GI50,Malme-3M,> 10 µM (inactive)
same,GI50,BT-549,> 10 µM (inactive)
same,GI50,NCI-H226,> 100 µM (inactive)
same,GI50,SK-MEL-28,> 100 µM (inactive)
same,GI50,NCI-H23,> 10 µM (inactive)
same,GI50,Hs-578T,> 10 µM (inactive)
same,GI50,NCI-H460,> 10 µM (inactive)
same,GI50,HCT-116,> 100 µM (inactive)
same,GI50,HOP-62,> 10 µM (inactive)
same,GI50,SW-620,78.2 µM (inactive)
same,GI50,TK-10,> 10 µM (inactive)
same,GI50,M14,79.4 µM (inactive)
same,GI50,IGROV-1,> 10 µM (inactive)
same,GI50,RXF 393,> 100 µM (inactive)
same,GI50,DU-145,> 10 µM (inactive)
same,GI50,NCI-H522,> 100 µM (inactive)
same,GI50,NCI/ADR-RES,> 10 µM (inactive)
same,GI50,MCF7,> 10 µM (inactive)
same,GI50,SN12C,> 10 µM (inactive)
same,GI50,SR,6.62 µM (inactive)
same,GI50,OVCAR-4,> 10 µM (inactive)
same,GI50,SK-OV-3,> 10 µM (inactive)
same,GI50,HT-29,> 100 µM (inactive)
same,GI50,A498,> 100 µM (inactive)
same,GI50,U-251,> 10 µM (inactive)
same,GI50,EKVX,> 10 µM (inactive)
same,GI50,RPMI-8226,> 10 µM (inactive)
same,GI50,MOLT-4,78.7 µM (inactive)
same,GI50,SNB-19,> 100 µM (inactive)
same,GI50,SK-MEL-2,> 100 µM (inactive)
same,GI50,SK-MEL-5,> 10 µM (inactive)
same,GI50,HCC 2998,> 10 µM (inactive)
same,GI50,A549,> 10 µM (inactive)
same,GI50,OVCAR-5,> 100 µM (inactive)
same,GI50,PC-3,53.1 µM (inactive)
same,GI50,MDA-MB-435,52.8 µM (inactive)
same,GI50,SF-295,> 100 µM (inactive)
same,GI50,HL-60,68.1 µM (inactive)
same,GI50,CAKI-1,> 10 µM (inactive)
O=S(=O)(O)c1c(Cl)c(Cl)c(O)c2ncccc12,GI50,UACC-257,14.9 µM (inactive)
same,GI50,UO-31,7.08 µM (inactive)
same,GI50,CCRF-CEM,4.01 µM (inactive)
same,GI50,HCT-15,5.33 µM
same,GI50,UACC-62,8.34 µM (inactive)
same,GI50,K562,7.57 µM (inactive)
same,GI50,SF-268,3.79 µM (inactive)
same,GI50,COLO 205,9.95 µM (inactive)
same,GI50,786-0,8.02 µM (inactive)
same,GI50,SF-539,16 µM (inactive)
same,GI50,ACHN,7.33 µM (inactive)
same,GI50,KM12,10.8 µM (inactive)
same,GI50,T47D,7.08 µM (inactive)
same,GI50,OVCAR-3,10.7 µM (inactive)
same,GI50,MDA-N,14.6 µM (inactive)
same,GI50,MDA-MB-231,27.7 µM (inactive)
same,GI50,SNB-75,14.3 µM (inactive)
same,GI50,HOP-92,18.8 µM (inactive)
same,GI50,OVCAR-8,10.3 µM (inactive)
same,GI50,LOX IMVI,2.19 µM (inactive)
same,GI50,Malme-3M,10.4 µM (inactive)
same,GI50,BT-549,20.2 µM (inactive)
same,GI50,NCI-H226,20.9 µM (inactive)
same,GI50,SK-MEL-28,13 µM (inactive)
same,GI50,NCI-H23,11.2 µM (inactive)
same,GI50,Hs-578T,20.2 µM (inactive)
same,GI50,NCI-H460,7.36 µM (inactive)
same,GI50,HCT-116,5.56 µM (inactive)
same,GI50,HOP-62,5 µM (inactive)
same,GI50,SW-620,10 µM (inactive)
same,GI50,TK-10,12.5 µM (inactive)
same,GI50,M14,12 µM (inactive)
same,GI50,IGROV-1,4.2 µM (inactive)
same,GI50,RXF 393,19.3 µM (inactive)
same,GI50,DU-145,16.6 µM (inactive)
same,GI50,NCI-H522,4.12 µM (inactive)
same,GI50,NCI/ADR-RES,5.05 µM (inactive)
same,GI50,MCF7,5.04 µM (inactive)
same,GI50,SN12C,14 µM (inactive)
same,GI50,SR,6.3 µM (inactive)
same,GI50,OVCAR-4,8.99 µM (inactive)
same,GI50,SK-OV-3,13 µM (inactive)
same,GI50,HT-29,9.89 µM (inactive)
same,GI50,A498,1 µM (active)
same,GI50,U-251,10.8 µM (inactive)
same,GI50,EKVX,12.2 µM (inactive)
same,GI50,RPMI-8226,10.6 µM (inactive)
same,GI50,MOLT-4,3.33 µM (inactive)
same,GI50,SNB-19,11.8 µM (inactive)
same,GI50,SK-MEL-2,12.5 µM (inactive)
same,GI50,SK-MEL-5,9.68 µM (inactive)
same,GI50,HCC 2998,13.5 µM (inactive)
same,GI50,A549,12.4 µM (inactive)
same,GI50,OVCAR-5,16.7 µM (inactive)
same,GI50,PC-3,10.8 µM (inactive)
same,GI50,MDA-MB-435,9.4 µM (inactive)
same,GI50,SF-295,7.06 µM (inactive)
same,GI50,HL-60,1.87 µM (inactive)
same,GI50,CAKI-1,18.6 µM (inactive)
